From patent US6509361B1, “1,5-Diaryl substituted pyrazoles as p38 kinase inhibitors” (Pharmacia Corporation, priority 2001, dated 2003) come the findings set out here.

SMILES strings stand for the structures.

The target of one data set is T1, human p38 kinase alpha (Homo sapiens, UniProt Q16539).
T1 construct: The coding region of the human p38a cDNA was obtained by PCR-amplification from RNA isolated from the human monocyte cell line THP.1; GST (N); made in house; host or cells: E. coli DH10B
The experiment in a line: p38 Kinase Assay (in vitro; PHAS-I/32P-ATP format or EGFRP/33P-ATP format). To be noted: activated human p38 kinase alpha, 50 μM unlabeled ATP; table does not say which of the two assay formats. The data set is classed as biochemical. The method, then:
The coding region of the human p38a cDNA was obtained by PCR-amplification from RNA isolated from the human monocyte cell line THP.1. First strand cDNA was synthesized from total RNA as follows: 2 μg of RNA was annealed to 100 ng of random hexamer primers in a 10 μl reaction by heating to 70° C. for 10 minutes followed by 2 minutes on ice. cDNA was then synthesized by adding 1 μl of RNAsin (Promega, Madison Wis.), 2 μl of 50 mM dNTP's, 4 μl of 5×buffer, 2 μl of 100 mM DTT and 1 μl (200 U) of Superscript II™ […] reverse transcriptase. Random primer, dNTP's and Superscript™ reagents were all purchased from Life-Technologies, Gaithersburg, Mass. The reaction was incubated at 42° C. for 1 hour. Amplification of p38 cDNA was performed by aliquoting 5 μl of the reverse transcriptase reaction into a 100 μl PCR reaction containing the following: 80 μl dH2O, 2 μl 50 mM dNTP's, 1 μl each of forward and reverse primers (50 pmol/μl), 10 μl of 10× buffer and 1 μl Expand™ polymerase (Boehringer Mannheim). The PCR primers incorporated Bam HI sites onto the 5′ and 3′ end of the amplified fragment, and were purchased from Genosys. The forward and reverse primers were 5′-[…]-3′ and 5′[…]-3′, respectively. The PCR amplification was carried out in a DNA Thermal Cycler (Perkin Elmer) by repeating 30 cycles of 94° C. for 1 minute, 60° C. for 1 minute and 68° C. for 2 minutes. After amplification, excess primers and unincorporated dNTP's were removed from the amplified fragment with a Wizard™ PCR prep (Promega) and digested with Bam HI (New England Biolabs). The Bam HI digested fragment was ligated into BamHI digested pGEX 2T plasmid DNA (PharmaciaBiotech) using T-4 DNA ligase (New England Biolabs) as described by T. Maniatis, Molecular Cloning: A Laboratory Manual, 2nd ed. (1989). The ligation reaction was transformed into chemically competent E. coli DH10B cells purchased from Life-Technologies following the manufacturer's instructions. Plasmid DNA was isolated from the resulting bacterial colonies using a Promega Wizard™ miniprep kit. Plasmids containing the appropriate Bam HI fragment were sequenced in a DNA Thermal Cycler (Perkin Elmer) with Prism™ (Applied Biosystems Inc.). cDNA clones were identified that coded for both human p38a isoforms (Lee et al. Nature 372, 739). One of the clones which contained the cDNA for p38a-2 (CSBP-2) inserted in the cloning site of pGEX 2T, 3′ of the GST coding region was designated pMON 35802. The sequence obtained for this clone is an exact match of the cDNA clone reported by Lee et al. This expression plasmid allows for the production of a GST-p38a fusion protein.
Expression of Human p38a:
GST/p38a fusion protein was expressed from the plasmid pMON 35802 in E. coli, stain DH10B (Life Technologies, Gibco-BRL). Overnight cultures were grown in Luria Broth (LB) containing […] ampicillin. The next day, 500 ml of fresh LB was inoculated with 10 ml of overnight culture, and grown in a 2 liter flask at 37° C. with constant shaking until the culture reached an absorbance of 0.8 at 600 nm. Expression of the fusion protein was induced by addition of isopropyl b-D-thiogalactosidse (IPTG) to a final concentration of 0.05 mM. The cultures were shaken for three hours at room temperature, and the cells were harvested by centrifugation. The cell pellets were stored frozen until protein purification.
Purification of p38 Kinase-α:
All chemicals were from Sigma Chemical Co. unless noted. Twenty grams of E. coli cell pellet collected from five 1 L shake flask fermentations was resuspended in a volume of PBS (140 mM NaCl, 2.7 mM KCl, 10 mM Na2HPO4, 1.8 mM KH2PO4, pH 7.3) up to 200 ml. The cell suspension was adjusted to 5 mM DTT with 2 M DTT and then split equally into five 50 ml Falcon conical tubes. The cells were sonnicated (Ultrasonics model W375) with a 1 cm probe for 3×1 minutes (pulsed) on ice. […]

In data set [1] the test system is TNF-a (LPS-stimulated human peripheral blood mononuclear cells). Kind of data set: TNF Cell Assay: LPS stimulation of human PBM cells, TNF-a by ELISA. The data set is classed as cell-based. To be noted: PBMC, LPS 20 ng/ml, overnight 37° C., compound 10-0.41 μM. As for the experimental part: Method of Isolation of Human Peripheral Blood Mononuclear Cells:
Human whole blood was collected in Vacutainer tubes containing EDTA as an anticoagulant. A blood sample (7 ml) was carefully layered over 5 ml PMN Cell Isolation Medium (Robbins Scientific) in a 15 ml round bottom centrifuge tube. The sample was centrifuged at 450-500×g for 30-35 minutes in a swing out rotor at room temperature. After centrifugation, the top band of cells were removed and washed 3 times with PBS w/o calcium or magnesium. The cells were centrifuged at 400×g for 10 minutes at room temperature. The cells were resuspended in Macrophage Serum Free Medium (Gibco BRL) at a concentration of 2 million cells/ml.
LPS Stimulation of Human PBMS:
PBM cells (0.1 ml, 2 million/ml) were co-incubated with 0.1 ml compound (10-0.41 μM, final concentration) for 1 hour in flat bottom 96 well microtiter plates. Compounds were dissolved in DMSO initially and diluted in TCM for a final concentration of 0.1% DMSO. LPS (Calbiochem, 20 ng/ml, final concentration) was then added at a volume of 0.010 ml. Cultures were incubated overnight at 37° C. Supernatants were then removed and tested by ELISA for TNF-a and IL1-b. Viability was analyzed using MTS. After 0.1 ml supernatant was collected, 0.020 ml MTS was added to remaining 0.1 ml cells. The cells were incubated at 37° C. for 2-4 hours, then the O.D. was measured at […].

Data set [2] has as its system TNF-α released by U937 cells (human histiocytic lymphoma cell line). The experiment in a line: U937 Cell Assay: LPS stimulation of TNF production by U937 cells, ELISA. The data set is classed as cell-based. To be noted: U-937, differentiated U937 cells, LPS 100 ng/ml, 4 hour incubation. The method, then:
Maintenance and Differentiation of the U937 Human Histiocytic Lymphoma Cell Line:
U937 cells (ATCC) were propagated in RPMI 1640 containing 10% fetal bovine serum, 100 IU/ml penicillin, 100 μg/ml streptomycin, and 2 mM glutamine (Gibco). Fifty million cells in 100 ml media were induced to terminal monocytic differentiation by 24 hour incubation with 20 ng/ml phorbol 12-myristate 13-acetate (Sigma). The cells were washed by centrifugation (200×g for 5 min) and resuspended in 100 ml fresh medium. After 24-48 hours, the cells were harvested, centrifuged, and resuspended in culture medium at 2 million cells/ml.
LPS Stimulation of TNF Production by U937 Cells:
U937 cells (0.1 ml, 2 million/ml) were incubated with 0.1 ml compound (0.004-50 μM, final concentration) for 1 hour in 96 well microtiter plates. Compounds were prepared as 10 mM stock solutions in DMSO and diluted in culture medium to yield a final DMSO concentration of 0.1% in the cell assay. LPS (E. coli, 100 ng/ml final concentration) was then added at a volume of 0.02 ml. After 4 hour incubation at 37° C., the amount of TNF-α released in the culture medium was quantitated by ELISA. Inhibitory potency is expressed as IC50 (μM).

T1 sequence (Q16539 whole entry): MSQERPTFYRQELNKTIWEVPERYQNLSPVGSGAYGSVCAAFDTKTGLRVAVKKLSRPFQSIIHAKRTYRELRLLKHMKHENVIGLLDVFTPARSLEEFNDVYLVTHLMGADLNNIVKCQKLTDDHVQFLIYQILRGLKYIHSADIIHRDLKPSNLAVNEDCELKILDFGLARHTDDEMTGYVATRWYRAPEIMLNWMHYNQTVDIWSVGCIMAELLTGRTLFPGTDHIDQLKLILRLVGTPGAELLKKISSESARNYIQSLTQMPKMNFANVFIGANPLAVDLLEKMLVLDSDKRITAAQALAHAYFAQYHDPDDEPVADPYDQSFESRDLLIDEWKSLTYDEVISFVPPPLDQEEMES

`CNc1cc(-c2cc(C)nn2-c2ccc(C)cc2)ccn1` [Example 9] gave a melting point of 126.34 °C. This compound had an IC50 on human p38 kinase alpha of 0.29 µM. Besides, it took 0.1 µM to reach half-maximal inhibition in data set [1] (IC50). Besides, in data set [2], the IC50 is 17.9 µM.
For `Cc1cccc(-n2nc(C)cc2-c2cc[nH]c(=O)c2)c1` [Example 23, 4-[1-(3-Methylphenyl)-3-methyl-1H-pyrazol-5-yl]-2-pyridone], in that order: 182 to 183 °C, 9.55 µM, 2.4 µM and at least 10 µM.
The matching figures for `CCNc1cc(-c2cc(C)nn2-c2ccc(C)cc2)ccn1` [Example 8]: 97.15 °C, 0.07 µM, 0.2 µM and 0.72 µM.
The matching figures for `Cc1cccc(-n2nc(C)cc2-c2ccnc(NCCc3ccccc3)c2)c1` [Example 24, 2-(Phenylethylamino)-4-[1-(3-methylphenyl)-3-methyl-1H-pyrazol-5-yl]pyridine]: 86 to 87 °C, below 0.01 µM, 0.02 µM and 0.05 µM.
On to `Cc1cnn(-c2ccc(F)cc2)c1-c1ccncc1` [Example 1], for which the melting point turned out to be 135.86 °C. The compound also registered an IC50 on human p38 kinase alpha of 16.8 µM. Further, in data set [1], the IC50 is 0.1 µM. The IC50 in data set [2] is at least 10 µM.
